# Test results from US20220098149A1, “METHOD FOR SYNTHESIS OF 9-CIS-BETA-CAROTENE AND FORMULATIONS THEREOF” (Ramot at Tel-Aviv University Ltd., priority 2016, published 2022).
# Assay: Initial stability tests of synthetic/purified 9CBC
# Assay type: physicochemical
structure (smiles),measurement,setting,value
"CC1=C(/C=C/C(C)=C\C=C\C(C)=C\C=C\C=C(C)\C=C\C=C(C)\C=C\C2=C(C)CCCC2(C)C)C(C)(C)CCC1 [9CBC, 9-cis-β-carotene]",Time to full decomposition,sensitive to oxygen and UV degradation,less than 24 hours
same,Stability of purified 9CBC,under vacuum or nitrogen flushing,unstable
